# Measured values: patent US11820745B2, “PKC-activating compounds for the treatment of neurodegenerative diseases” (Synaptogenix, Inc., priority 2008, dated 2023)
# Columns and labels:
# TACE = TACE assay in rat primary neurons; format: cell-based; details: primary neurons from rat hippocampus; FIGS. 9b, c
# Procedure: TACE Assay. TACE was measured by incubating 5 μl cell homogenate, 3 μl buffer (50 mM Tris-HCl 7.4 plus 25 mM NaCl plus 4% glycerol), and 1 of 100 μM TACE substrate IV (Aβz-LAQAVRSSSR-DPa) (Calbiochem) for 20 min at 37° in 1.5-ml polypropylene centrifuge tubes (Jin et al., Anal Biochem. 2002; 302: 269-75). The reaction was stopped by cooling to 4° C. The samples were diluted to 1 ml and the fluorescence was rapidly measured (ex=320 nm, em=420 nm) in a Spex Fluorolog 2 spectrofluorometer.
# PKCγ = biological target: T1, PKCγ (Homo sapiens, UniProt P05129); assay: Protein kinase C assay, purified PKC isozymes: PKCγ; format: biochemical; details: higher concentrations, 50-100 μM; data not shown
# T1 construct: purchased Calbiochem
# Procedure: Protein kinase C assay. Rat hippocampal cells were cultured and scraped in 0.2 ml homogenization buffer (20 triM Tris-HCl, pH 7.4, 50 mM NaF, 1 μg/ml leupeptin, and 0.1 mM PMSF) and homogenized by sonication in a Marsonix micro-probe sonicator (5 see, 10W). To measure PKC, 10 ul of cell homogenate or purified. PKC isozyme (purchased from Calbiochem) was incubated for 15 min at 37° C. in the presence of 10 μM histones, 4.89 mM CaCl2, 1.2 μg/μl phosphatidyl-L-serine, 0.18 μg/μl 1,2-dioctanoyl-sn-glycerol, 10 mM MgCl2, 20 mM HEPES (pH 7.4), 0.8 mM EDTA, 4 mM EGTA, 4% glycerol, 8 μg/ml aprotinin, 8 μg/ml leupeptin, and 2 mM benzamidine. 0.5 μCi [^γ-32P]ATP was added and ^32P-phosphoprotein formation was measured by adsorption onto phosphocellulose as described previously. Nelson and Alkon, J. Neurochemistry. 1995; 65: 2350-57. For measurements of activation by BR-101 (DCP-LA) and similar compounds, PKC activity was measured in the absence of diacylglycerol and phosphatidyl serine, as described by Kanno et al., and PKC δ, ε, η, and μ were measured in the absence of added EGTA and CaCl2, as described by Kanno et al., J. Lipid Res. 2006; 47: 1146-50. […]
# To determine their PKC isozyme specificity, the new compounds were preincubated with purified PKC for five minutes and the PKC activity was measured radiometrically.
# PKCε = biological target: T2, PKCε (Homo sapiens, UniProt Q02156); details: Kanno et al.; cited from earlier work
# T2 construct: purchased Calbiochem
# T2 sequence (Q02156 1-737): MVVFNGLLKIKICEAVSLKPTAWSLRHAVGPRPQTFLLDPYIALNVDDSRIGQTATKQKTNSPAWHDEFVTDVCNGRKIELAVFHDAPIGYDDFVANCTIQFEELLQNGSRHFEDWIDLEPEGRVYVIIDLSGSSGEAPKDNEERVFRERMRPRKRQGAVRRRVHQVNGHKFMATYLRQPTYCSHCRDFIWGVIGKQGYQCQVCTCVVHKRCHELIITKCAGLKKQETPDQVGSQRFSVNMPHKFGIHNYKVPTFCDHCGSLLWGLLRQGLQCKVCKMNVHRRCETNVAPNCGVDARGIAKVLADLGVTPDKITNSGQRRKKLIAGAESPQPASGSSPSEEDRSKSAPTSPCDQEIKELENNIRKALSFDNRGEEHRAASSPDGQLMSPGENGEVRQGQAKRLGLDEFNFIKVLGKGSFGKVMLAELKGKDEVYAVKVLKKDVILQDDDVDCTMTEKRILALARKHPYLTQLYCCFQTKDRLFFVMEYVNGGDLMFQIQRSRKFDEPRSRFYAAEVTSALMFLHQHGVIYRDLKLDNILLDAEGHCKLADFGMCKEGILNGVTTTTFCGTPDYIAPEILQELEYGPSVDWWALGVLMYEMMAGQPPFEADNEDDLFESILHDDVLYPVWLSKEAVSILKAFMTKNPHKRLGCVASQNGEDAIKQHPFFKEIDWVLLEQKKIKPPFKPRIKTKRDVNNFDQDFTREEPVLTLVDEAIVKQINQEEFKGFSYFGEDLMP
SMILES,TACE activity (TACE),effect on PKCγ (PKCγ),potency for PKCε over other PKC isozymes (PKCε)
"CCC1CC1CC1CC1CC1CC1CC1CC1CC1CC1CC1CC1CCC(=O)OC (stereo not drawn) [BR-111, methyl-3-(2-((2-((2-((2-((2-((2-ethylcyclopropyl)methyl)cyclopropyl)methyl)cyclopropyl)methyl)-cyclopropyl)methyl)cyclopropyl)methyl)cyclopropyl)propanoate]",small increases,–,–
"CCCCCC1CC1CC1CC1CCCCCCCC(=O)O (stereo not drawn) [BR-101, 8-[2-(2-pentyl-cyclopropylmethyl)-cyclopropyl]-octanoic acid]",–,activated,greater than 7 fold
